Assay [1] addresses T1, CBX8 binding to chromatin (Homo sapiens, UniProt Q9HC52).
T1 construct: endogenous in cells; host or cells: Hs68 fibroblasts (A16); HEK293T (A19); K562 (A23)
T1 sequence (Q9HC52 1-389): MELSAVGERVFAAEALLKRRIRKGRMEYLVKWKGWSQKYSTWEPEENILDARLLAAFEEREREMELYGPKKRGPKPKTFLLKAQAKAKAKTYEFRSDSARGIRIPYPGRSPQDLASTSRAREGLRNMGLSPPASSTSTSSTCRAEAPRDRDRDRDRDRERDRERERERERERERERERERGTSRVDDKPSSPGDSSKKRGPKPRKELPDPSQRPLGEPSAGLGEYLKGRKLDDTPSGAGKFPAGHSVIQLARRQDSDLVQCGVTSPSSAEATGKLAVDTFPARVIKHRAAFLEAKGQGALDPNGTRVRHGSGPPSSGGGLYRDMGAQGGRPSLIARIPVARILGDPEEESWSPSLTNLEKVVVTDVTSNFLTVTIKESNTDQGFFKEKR
In words: ChIP-qPCR in K562 cells. In kind it is cell-based. As for the experimental part: (§1) FIGS. 11A-11E: Cellular Activity of CBX2 ChD Ligand. FIG. 11A) Relative cytosolic access of SW2_152F conjugated to a chloroalkane (SW2_152F-CA, SEQ ID NO: 28) was evaluated using chloroalkane penetration assay (CAPA). The half maximal cell penetration value (CP50) of SW2_152F-CA was determined for SW2_152F-CA and CBX8 inhibitor SW2_110A-CA. FIG. 11B) Chemoprecipitations from HEK293T nuclear lysates using biotinylated SW2_152F (SW2_152F-B, SEQ ID NO: 29) were analyzed using immunoblot analysis. FIG. 11C) Analysis and quantification of SW2_152F in abrogating bulk binding of endogenous CBX proteins to chromatin in HEK293T cells by Sequential Salt Extraction. FIG. 11D). Chromatin immunoprecipitation (ChIP) from K562 cells using antibodies against IgG, H3K27me3, CBX2 and CBX8 was followed by quantitative PCR of genomic regions near Tm9SF4 (negative locus), TCF21, Fyn-2, and PAX7. Cells were treated with 10 μM SW2_152F for 4 h prior to harvest. FIG. 11E) Chromatin immunoprecipitation (ChIP) in Hs68 fibroblast cells using antibodies against IgG, CBX7, and CBX8 followed by quantitative PCR of genomic regions at LMNB2 (negative locus), CCND2, and RUNX3. Cells were treated with 100 μM SW2_152F for 4 h prior to harvest. For all qPCR, error bars represent SEM n=3 biological replicates, p-values were calculated using two-tailed Student's t-test, * p<0.05, **=p<0.01, ***=p<0.001, ****=p<0.0001.
(§2) ChIP-qPCR. After validating selectivity using lysate and bulk chromatin, we wanted to determine whether the inhibitor can disrupt CBX2 binding to chromatin in live cells. We used chromatin immunoprecipitation (ChIP) followed by quantitative PCR (ChIP-qPCR) of sites with CBX2, CBX8 and H3K27me3 enrichment in K562 ChIP-Seq datasets in ENCODE (M. Azkanaz, et al., Elife 2019). We evaluated effects of compound treatment at both 10 μM and 100 μM SW2_152F. […] In order to evaluate SW2_152F activity against a paralog with no binding to SW2_152F in vitro, CBX7 ChIP-qPCR was performed in Hs68 fibroblast cells, which have no detectable CBX2 expression (H. Pemberton, et al., Genome Biol. 2014).
Background: In qPCR the cycle at which signal appears reflects the starting amount.

In assay [2] the target is T2, CBX2 binding to chromatin (Homo sapiens, UniProt Q14781).
T2 construct: endogenous in cells; host or cells: HEK293T (A21); K562 (A22)
Put plainly: ChIP-qPCR in K562 cells. Format: cell-based. The procedure:
as §1, §2

Structures are written as SMILES. Square brackets hold non-standard residues; d marks the D form. Peptide text beside a SMILES is read from it. * marks the point of attachment. Tyr(3-Cl) = N[C@@H](Cc1ccc(O)c(Cl)c1)C(=O)O; Benzoyl(3,5-Cl2) = O=C(c1cc(Cl)cc(Cl)c1)*; Lys(Et2) = CCN(CC)CCCC[C@H](N)C(=O)O; Gly(cPent) = N[C@H](C(=O)O)C1CCCC1; NH(propargyl) = C#CCN*

T2 sequence (Q14781 whole entry): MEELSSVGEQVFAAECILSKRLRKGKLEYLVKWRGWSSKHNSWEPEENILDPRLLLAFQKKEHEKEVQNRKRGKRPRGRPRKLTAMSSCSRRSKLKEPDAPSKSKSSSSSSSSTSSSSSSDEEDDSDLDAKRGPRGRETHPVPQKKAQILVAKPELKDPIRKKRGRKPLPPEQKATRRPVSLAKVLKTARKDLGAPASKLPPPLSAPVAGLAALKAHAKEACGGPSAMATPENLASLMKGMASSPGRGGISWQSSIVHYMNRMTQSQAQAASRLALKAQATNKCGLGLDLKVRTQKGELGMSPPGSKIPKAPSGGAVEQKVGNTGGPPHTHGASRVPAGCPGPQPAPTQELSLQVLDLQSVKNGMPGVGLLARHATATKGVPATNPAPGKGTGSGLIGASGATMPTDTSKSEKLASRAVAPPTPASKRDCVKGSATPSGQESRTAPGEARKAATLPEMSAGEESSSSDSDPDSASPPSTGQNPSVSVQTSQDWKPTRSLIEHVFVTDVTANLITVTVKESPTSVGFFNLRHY

Regarding `C#CCNC(=O)[C@H](CO)NC(=O)[C@H](CCCCN(CC)CC)NC(=O)[C@@H](NC(=O)[C@@H](NC(=O)[C@H](Cc1ccc(O)c(Cl)c1)NC(=O)c1cc(Cl)cc(Cl)c1)C1CCCC1)[C@@H](C)CC` [SW2_152F] ({Benzoyl(3,5-Cl2)}-[Tyr(3-Cl)][Gly(cPent)]I[Lys(Et2)]S-{NH(propargyl)}), the “CBX8 binding, ChIP-qPCR” value in assay [1] (10 μM, 4 h) is “not CBX8 binding”; in assay [1] (100 μM) it was “significant reduction of both CBX2 and CBX8 binding”. Also, the “CBX2 binding, ChIP-qPCR” value in assay [2] (10 μM, 4 h) was “significant reduction of CBX2 binding”; in assay [2] (100 μM), “significant reduction of both CBX2 and CBX8 binding”.
